Measurements published in patent publication US11873320B2 (REATA PHARMACEUTICALS HOLDINGS, LLC, priority 2013, dated 2024).
Where two headings read alike, the source gives them in different places.

Key:
[1] = tested on: NQO1 and HMOX1 protein; experiment: Nrf2 target protein levels in BV2 cells; type: cell-based, mouse; details: concentrations up to 125 nM
[2] = tested on: CYP2B6; experiment: CYP450 induction in cultured human hepatocytes: CYP2B6; type: in vitro ADME; details: up to 3 μM
[3] = tested on: rats; experiment: 28-day toxicity study in rats; type: in vivo, rat
Text: One hypothesis for this effect is that AIMs directly or indirectly increase transaminase gene expression in the absence of cellular toxicity.

[4] = mouse tissue distribution, 25 mg/kg PO QD×3
[5] = oral pharmacokinetics in monkeys; type: in vivo, monkey; details: 3 mg/kg
Experimental: Following oral administration of a suspension formulation at doses of 10 to 100 mg/kg, maximal concentrations were observed within 1 to 2 hours in mice, and within 1 to 24 hours in rats and monkeys.

[6] = tested on: IFNγ-induced NO production; experiment: IFNγ-induced NO production in RAW264.7 macrophages (Griess reagent); type: cell-based; details: Mus musculus
Experimental: Inhibition of IFNγ-induced NO production by AIMs is Nrf2-dependent (Dinkova-Kostova, 2005). […] Nitrite (NO2^−) levels in the media were measured as a surrogate for nitric oxide using the Griess reagent assay. Cell viability was assessed using the WST-1 assay. […] 63170, 63171, 63179, and 63189 are compounds of the formulas: […]

[7] = tested on: ocular inflammation; experiment: ocular inflammation after paracentesis in rabbits; type: in vivo, rabbit; details: 0.01% RTA 408 in the formulation
Experimental: Each rabbit was given three instillations within 60 minutes before induction of paracentesis and two instillations within 30 minutes after induction of paracentesis. Each instillation was 50 μL and given in both eyes. Aqueous humor for 6 animals per time-point was collected 30 minutes and again 2 hours after induction of paracentesis. The amount of inflammation was determined by protein concentration in the aqueous humor.

[8] = tested on: NQO1; experiment: NQO1 activity in mouse tissues, 25 mg/kg PO QD×3; type: in vivo
[9] = topical ocular administration pharmacokinetics in rabbits; type: in vivo, rabbit
Experimental: Using rabbits, the ocular absorption and systemic pharmacokinetic behavior of RTA 408 was evaluated.

[10] = tested on: Sprague Dawley rats; experiment: 14-day rat toxicity study (tissue distribution, Nrf2 targets)
[11] = tested on: radiation-induced oral mucositis; experiment: radiation-induced oral mucositis in hamsters
[12] = tested on: bleomycin-induced pulmonary fibrosis; experiment: bleomycin-induced pulmonary fibrosis in mice; type: in vivo, mouse; details: 10, 30, or 100 mg/kg, 39 days
Experimental: Bleomycin was given on Day 0. Daily weights were measured. BAL fluid cell counts were obtained at sacrifice. […] No significant improvement in chronic inflammation score, interstitial fibrosis, or number of fibrotic foci was observed.
On the last day of dosing, lung tissue was collected and histology was performed to evaluate the extent of inflammation and interstitial fibrosis. […] Additional evaluation was performed using a rat model of pulmonary fibrosis that has been extensively characterized at the Lovelace Respiratory Research Institute. In this study, rats were challenged with bleomycin or saline by intratracheal administration on day 0. […] For the remaining animals, bronchoalveolar lavage fluid was collected on day 28 for assessment of pro-inflammatory infiltrates, and lung tissue was analyzed for hydroxyproline levels and histopathology. Challenge with bleomycin sulfate induced a substantial release of neutrophils and an increase in soluble collagen in the BALF, as well as an increase in hydroxyproline in the lung.

[13] = tested on: phosphorylation of IκBα; experiment: TNFα-induced phosphorylation of IκBα in HeLa cells (Western blot); type: cell-based, human; details: 6 h pretreatment, TNFα 20 ng/mL 5 min
Experimental: Total and phosphorylated levels of IκBα were evaluated by Western blot.

[14] = tested on: STAT3 phosphorylation; experiment: IL-6-induced STAT3 phosphorylation in HeLa cells; type: cell-based, human; details: 1 μM, 6 hours pretreatment
Text: (§1) Osteoclastogenesis is a multi-step differentiation process that results from the binding of RANKL to its receptor, RANK, on cells of hematopoietic origin.

[15] = tested on: acute radiation dermatitis; experiment: acute radiation dermatitis model, BALB/c mice; type: in vivo, mouse
Experimental: Using male BALB/c mice, a 30 Gy dose of radiation was administered on day 0 (Table 3). […] The remaining mice were sacrificed on day 30 at 4 hours postdose. Plasma was collected on days 12 and 30 as well as irradiated skin samples for mRNA and histological examination. [table]

[16] = tested on: RANKL-induced TRAP activity and formation of osteoclasts; experiment: RANKL-induced osteoclastogenesis in RAW264.7; type: cell-based; details: Mus musculus, Osteoclast; 2 h pretreatment, 50 ng/mL RANKL
Text: as §1

[17] = metabolism in rodent liver microsomes; type: in vitro ADME, mice, rats; details: 60-minute incubation, NADPH and UGT
[18] = tested on: cigarette smoke-induced COPD; experiment: cigarette smoke-induced COPD in mice; type: in vivo, mouse
Experimental: At the end of the study, lung tissue and BALF were collected for analysis of inflammatory infiltrates and cytokines. […] An AIM analog (63355) was tested in the same study for comparison. 63355 is a compound of the formula: […]

[19] = 10 mg/kg, four hours after final dose, Day 14

For `CC1(C)CC[C@]2(NC(=O)C(C)(F)F)CC[C@]3(C)[C@H](C(=O)C=C4[C@@]5(C)C=C(C#N)C(=O)C(C)(C)[C@@H]5CC[C@]43C)[C@@H]2C1` [RTA 408, N-((4aS,6aR,6bS,8aR,12aS,14aR,14bS)-11-cyano-2,2,6a,6b,9,9,12a-heptamethyl-10,14-dioxo-1,2,3,4,4a,5,6,6a,6b,7,8,8a,9,10,12a,14,14a,14b-octadecahydropicen-4a-yl)-2,2-difluoropropanamide], the “NQO1 and HMOX1 protein levels” value [1] was “increased NQO1 and HMOX1 protein levels”, the “induction of enzyme activity” value [2] was “not an inducer” and the transaminases [3] was “Transaminase elevations”. The “levels in the CNS” value [4] was “Notable levels were observed in the CNS”, the “dose-normalized systemic exposure of loose-filled capsule vs suspension formulation” value [5] was “somewhat lower” and the IC50 ([6]; 2 h pre-treatment, 20 ng/mL IFNγ 24 h, read-out: IC50, suppression of IFNγ-induced NO production) was 3.8 ± 1.2 nM. The IC50 ([6]; Table 15, read-out: NO IC50 (nM), RAW264.7) was 4 ± 1 nM, the “aqueous humor protein concentration” value [7] was “reduction in aqueous humor protein similar to that of the highest concentration of any of the other reference compounds” and the “activation of NQO1 in multiple tissues” value [8] was “Meaningful activation of NQO1”. The “eye tissues with the highest concentrations” value ([9]; ocular topical administration) was “cornea, retina, or iris”, the “plasma concentrations after oral vs topical ocular administration” value ([9]; once per day for 5 days) was ~100 fold and the “brain exposure over in vitro IC50 for NO inhibition” value [10, 19] was 240 fold. For the same compound, the “lung exposure over in vitro IC50 for NO inhibition” value [10, 19] was 294 fold, the “toxicity finding in the high dose group” value ([10]; 100 mg/kg, tissues collected on Day 6) was “observed toxicities” and the “liver NQO1 and GST enzyme activities” value ([10]; PO QD×14) was “induced dose-dependently”. The “hamsters euthanized on Day 2 due to weight loss in excess of 20%” value ([11]; 100 mg/kg) was “two out of eight”, the “duration of ulcerative mucositis” value ([11]; 30 and 100 mg/kg) was “significant reduction” and the “percentage of animals with mucositis scores ≥3” value ([11]; hamster, in vivo) was “dose-dependent decrease”. The “inflammation and interstitial fibrosis (histology)” value [12] was “no statistically significant effects”, the “TNFα-induced phosphorylation of IκBα” value [13] was “inhibited TNFα-induced phosphorylation of IκBα in a dose-dependent manner” and the “IL-6-induced phosphorylation of STAT3” value [14] was “inhibited phosphorylation of STAT3 induced by IL-6”. The “percentage of mice with dermatitis clinical score above 3” value ([15]; oral administration) was “significantly lower”, the “Percentage of mice which scored above 2 in clinical dermatitis exam” value (“Percentage … in clinical dermatitis exam” for short) ([15]; topical 0.01%, Day 12) was 0.0% and the “Percentage … in clinical dermatitis exam” value ([15]; topical 0.01%, Day 14) was 0.0%. For the same compound, the “Percentage … in clinical dermatitis exam” value ([15]; topical 0.01%, Day 16) was 20.0%, the “Percentage … in clinical dermatitis exam” value ([15]; topical 0.01%, Day 18) was 50.0% and the “Percentage … in clinical dermatitis exam” value ([15]; topical 0.01%, Day 20) was 10.0%. The “Percentage … in clinical dermatitis exam” value ([15]; topical 0.01%, Day 22) was 40.0%, the “Percentage … in clinical dermatitis exam” value ([15]; topical 0.01%, Day 24) was 40.0% and the “Percentage … in clinical dermatitis exam” value ([15]; topical 0.01%, Day 26) was 40.0%. For the same compound, the “Percentage … in clinical dermatitis exam” value ([15]; topical 0.01%, Day 28) was 20.0%, the “Percentage … in clinical dermatitis exam” value ([15]; topical 0.01%, Day 30) was 10.0% and the “Percentage … in clinical dermatitis exam” value ([15]; topical 0.1%, Day 12) was 7.1%. The “Percentage … in clinical dermatitis exam” value ([15]; topical 0.1%, Day 14) was 10.0%, the “Percentage … in clinical dermatitis exam” value ([15]; topical 0.1%, Day 16) was 20.0% and the “Percentage … in clinical dermatitis exam” value ([15]; topical 0.1%, Day 18) was 80.0%. For the same compound, the “Percentage … in clinical dermatitis exam” value ([15]; topical 0.1%, Day 20) was 60.0%, the “Percentage … in clinical dermatitis exam” value ([15]; topical 0.1%, Day 22) was 40.0% and the “Percentage … in clinical dermatitis exam” value ([15]; topical 0.1%, Day 24) was 30.0%. For the same compound, the “Percentage … in clinical dermatitis exam” value ([15]; topical 0.1%, Day 26) was 10.0%, the “Percentage … in clinical dermatitis exam” value ([15]; topical 0.1%, Day 28) was 0.0% and the “Percentage … in clinical dermatitis exam” value ([15]; topical 0.1%, Day 30) was 0.0%. For the same compound, the “Percentage … in clinical dermatitis exam” value ([15]; topical 1.0%, Day 14) was 20.0%, the “Percentage … in clinical dermatitis exam” value ([15]; topical 1.0%, Day 16) was 10.0% and the “Percentage … in clinical dermatitis exam” value ([15]; topical 1.0%, Day 18) was 70.0%. For the same compound, the “Percentage … in clinical dermatitis exam” value ([15]; topical 1.0%, Day 20) was 30.0%, the “Percentage … in clinical dermatitis exam” value ([15]; topical 1.0%, Day 22) was 10.0% and the “Percentage … in clinical dermatitis exam” value ([15]; topical 1.0%, Day 24) was 0.0%. For the same compound, the “Percentage … in clinical dermatitis exam” value ([15]; topical 1.0%, Day 26) was 0.0%, the “Percentage … in clinical dermatitis exam” value ([15]; topical 1.0%, Day 28) was 0.0% and the “Percentage … in clinical dermatitis exam” value ([15]; topical 1.0%, Day 30) was 0.0%. The “percentage of mice with dermatitis clinical score above 2” value ([15]; topical administration) was “slightly lower”, the IC50 [16] was 5 to 10 nM and the parent molecule remaining [17] was > 65%. The “lung Txnrd enzyme activity” value ([18]; 30 mg/kg) was “induced”, the “pro-inflammatory cytokines including KC and TNFα” value ([18]; doses as low as 3 mg/kg, two weeks) was “significant suppression of pro-inflammatory cytokines” and the “lung Gsr enzyme activity” value ([18]; mouse, in vivo) was “not altered”. The “lung Gst enzyme activity” value ([18]; mouse, in vivo) was “decreased with treatment” and the “lung NQO1 enzyme activity decreased by cigarette smoke” value ([18]; mouse, in vivo) was “rescued this loss”.
